Measured values taken from ChEMBL document CHEMBL1201862, “PubChem BioAssay data set” (2004).
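Growth conditions: 96-well plates. Treatment: test compound, 48 hours, 5 concentrations. Analysis: linear interpolation between bracketing concentrations; unreached endpoints set to highest concentration. At the GI50, growth is halved.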 Active and inactive are the calls of the source. Cut-off read from the data, not from the text of the source: active = GI50 up to about 1.1 µM and inactive = higher.

Key:
Assay in all cases: NCI-60 cell line screen, 48 h
786-0 = tested on: 786-0
A498 = tested on: A498
A549 = tested on: A549
ACHN = tested on: ACHN
CAKI-1 = tested on: CAKI-1
CCRF-CEM = tested on: CCRF-CEM
COLO 205 = tested on: COLO 205
DLD-1 = tested on: DLD-1
DMS-114 = tested on: DMS-114
DMS-273 = tested on: DMS-273
EKVX = tested on: EKVX
HCC 2998 = tested on: HCC 2998
HCT-116 = tested on: HCT-116
HCT-15 = tested on: HCT-15
HL-60 = tested on: HL-60
HOP-18 = tested on: HOP-18
HOP-62 = tested on: HOP-62
HOP-92 = tested on: HOP-92
HT-29 = tested on: HT-29
IGROV-1 = tested on: IGROV-1
K562 = tested on: K562
KM-20L2 = tested on: KM-20L2
KM12 = tested on: KM12
LOX IMVI = tested on: LOX IMVI
LXFL 529 = tested on: LXFL 529
M14 = tested on: M14
Malme-3M = tested on: Malme-3M
NCI-H226 = tested on: NCI-H226
NCI-H23 = tested on: NCI-H23
NCI-H460 = tested on: NCI-H460
NCI-H522 = tested on: NCI-H522
OVCAR-3 = tested on: OVCAR-3
OVCAR-4 = tested on: OVCAR-4
OVCAR-5 = tested on: OVCAR-5
OVCAR-8 = tested on: OVCAR-8
RXF 393 = tested on: RXF 393
SF-268 = tested on: SF-268
SF-295 = tested on: SF-295
SF-539 = tested on: SF-539
SK-MEL-28 = tested on: SK-MEL-28
SK-MEL-2 = tested on: SK-MEL-2
SK-OV-3 = tested on: SK-OV-3
SN12C = tested on: SN12C
SNB-19 = tested on: SNB-19
SNB-75 = tested on: SNB-75
SNB-78 = tested on: SNB-78
SW-620 = tested on: SW-620
U-251 = tested on: U-251
UACC-257 = tested on: UACC-257
UACC-62 = tested on: UACC-62
UO-31 = tested on: UO-31
M19-MEL = tested on: M19-MEL
MOLT-4 = tested on: MOLT-4
RPMI-8226 = tested on: RPMI-8226
SK-MEL-5 = tested on: SK-MEL-5
TK-10 = tested on: TK-10
XF498 = tested on: XF498
SR = tested on: SR

For `CC(O)(c1ccc(OCCC[N+](C)(C)C)cc1)C(C)(O)c1ccc(OCCC[N+](C)(C)C)cc1` (stereo not given), the GI50 (786-0) was > 100 µM (inactive), the GI50 (A498) was > 100 µM (inactive) and the GI50 (A549) was > 100 µM (inactive). The GI50 (ACHN) was > 100 µM (inactive), the GI50 (CAKI-1) was > 100 µM (inactive) and the GI50 (CCRF-CEM) was > 100 µM (inactive). For the same compound, the GI50 (COLO 205) was > 100 µM (inactive), the GI50 (DLD-1) was > 100 µM (inactive) and the GI50 (DMS-114) was > 100 µM (inactive). The GI50 (DMS-273) was > 100 µM (inactive), the GI50 (EKVX) was > 100 µM (inactive) and the GI50 (HCC 2998) was > 100 µM (inactive). For the same compound, the GI50 (HCT-116) was > 100 µM (inactive), the GI50 (HCT-15) was greater than 100 µM and the GI50 (HL-60) was > 100 µM (inactive). The GI50 (HOP-18) was > 100 µM (inactive), the GI50 (HOP-62) was > 100 µM (inactive) and the GI50 (HOP-92) was > 100 µM (inactive). The GI50 (HT-29) was > 100 µM (inactive), the GI50 (IGROV-1) was > 100 µM (inactive) and the GI50 (K562) was > 100 µM (inactive). The GI50 (KM-20L2) was > 100 µM (inactive), the GI50 (KM12) was > 100 µM (inactive) and the GI50 (LOX IMVI) was > 100 µM (inactive). For the same compound, the GI50 (LXFL 529) was > 100 µM (inactive), the GI50 (M14) was > 100 µM (inactive) and the GI50 (Malme-3M) was > 100 µM (inactive). The GI50 (NCI-H226) was > 100 µM (inactive), the GI50 (NCI-H23) was > 100 µM (inactive) and the GI50 (NCI-H460) was > 100 µM (inactive). For the same compound, the GI50 (NCI-H522) was > 100 µM (inactive), the GI50 (OVCAR-3) was > 100 µM (inactive) and the GI50 (OVCAR-4) was > 100 µM (inactive). The GI50 (OVCAR-5) was > 100 µM (inactive), the GI50 (OVCAR-8) was > 100 µM (inactive) and the GI50 (RXF 393) was > 100 µM (inactive). For the same compound, the GI50 (SF-268) was > 100 µM (inactive), the GI50 (SF-295) was > 100 µM (inactive) and the GI50 (SF-539) was > 100 µM (inactive). For the same compound, the GI50 (SK-MEL-28) was > 100 µM (inactive), the GI50 (SK-MEL-2) was > 100 µM (inactive) and the GI50 (SK-OV-3) was > 100 µM (inactive). For the same compound, the GI50 (SN12C) was > 100 µM (inactive), the GI50 (SNB-19) was > 100 µM (inactive) and the GI50 (SNB-75) was > 100 µM (inactive). The GI50 (SNB-78) was > 100 µM (inactive), the GI50 (SW-620) was > 100 µM (inactive) and the GI50 (U-251) was > 100 µM (inactive). For the same compound, the GI50 (UACC-257) was > 100 µM (inactive), the GI50 (UACC-62) was > 100 µM (inactive) and the GI50 (UO-31) was > 100 µM (inactive).

In the case of `O=C1[C@@H]2C(c3c(Cl)cccc3Cl)=NO[C@@H]2C(=O)N1c1ccc(Cc2ccc(N3C(=O)[C@H]4C(c5c(Cl)cccc5Cl)=NO[C@H]4C3=O)cc2)cc1`, the GI50 (786-0) is reported as > 100 µM (inactive), the GI50 (A498) is reported as > 100 µM (inactive) and the GI50 (A549) is reported as > 100 µM (inactive). For the same compound, the GI50 (ACHN) was > 100 µM (inactive), the GI50 (CAKI-1) was > 100 µM (inactive) and the GI50 (CCRF-CEM) was > 100 µM (inactive). For the same compound, the GI50 (COLO 205) was > 100 µM (inactive), the GI50 (DLD-1) was > 100 µM (inactive) and the GI50 (DMS-114) was > 100 µM (inactive). The GI50 (DMS-273) was > 100 µM (inactive), the GI50 (EKVX) was > 100 µM (inactive) and the GI50 (HCC 2998) was > 100 µM (inactive). The GI50 (HCT-15) was greater than 100 µM, the GI50 (HL-60) was > 100 µM (inactive) and the GI50 (HOP-18) was > 100 µM (inactive). The GI50 (HOP-62) was > 100 µM (inactive), the GI50 (HOP-92) was > 100 µM (inactive) and the GI50 (HT-29) was > 100 µM (inactive). The GI50 (IGROV-1) was > 100 µM (inactive), the GI50 (K562) was > 100 µM (inactive) and the GI50 (KM-20L2) was > 100 µM (inactive). For the same compound, the GI50 (KM12) was > 100 µM (inactive), the GI50 (LOX IMVI) was > 100 µM (inactive) and the GI50 (LXFL 529) was > 100 µM (inactive). For the same compound, the GI50 (M14) was > 100 µM (inactive), the GI50 (M19-MEL) was > 100 µM (inactive) and the GI50 (MOLT-4) was > 100 µM (inactive). The GI50 (Malme-3M) was > 100 µM (inactive), the GI50 (NCI-H226) was > 100 µM (inactive) and the GI50 (NCI-H23) was > 100 µM (inactive). The GI50 (NCI-H460) was > 100 µM (inactive), the GI50 (OVCAR-3) was > 100 µM (inactive) and the GI50 (OVCAR-4) was > 100 µM (inactive). The GI50 (OVCAR-5) was > 100 µM (inactive), the GI50 (OVCAR-8) was > 100 µM (inactive) and the GI50 (RPMI-8226) was > 100 µM (inactive). The GI50 (RXF 393) was > 100 µM (inactive), the GI50 (SF-268) was > 100 µM (inactive) and the GI50 (SF-295) was > 100 µM (inactive). For the same compound, the GI50 (SF-539) was > 100 µM (inactive), the GI50 (SK-MEL-28) was > 100 µM (inactive) and the GI50 (SK-MEL-2) was > 100 µM (inactive). The GI50 (SK-MEL-5) was > 100 µM (inactive), the GI50 (SK-OV-3) was > 100 µM (inactive) and the GI50 (SN12C) was > 100 µM (inactive). For the same compound, the GI50 (SNB-75) was > 100 µM (inactive), the GI50 (SNB-78) was > 100 µM (inactive) and the GI50 (SW-620) was > 100 µM (inactive). The GI50 (TK-10) was > 100 µM (inactive), the GI50 (U-251) was > 100 µM (inactive) and the GI50 (UACC-257) was > 100 µM (inactive). For the same compound, the GI50 (UACC-62) was > 100 µM (inactive), the GI50 (UO-31) was 90.6 µM (inactive) and the GI50 (XF498) was > 100 µM (inactive).

In the case of `CCOC(=O)C(C(=O)OCC)c1cc(-c2cc3ccccc3o2)oc(=O)c1C#N`, the GI50 (A498) is reported as 25.3 µM (inactive), the GI50 (A549) is reported as 33.4 µM (inactive) and the GI50 (ACHN) is reported as 34.6 µM (inactive). For the same compound, the GI50 (CAKI-1) was 17.4 µM (inactive), the GI50 (CCRF-CEM) was 29.6 µM (inactive) and the GI50 (COLO 205) was 20.5 µM (inactive). For the same compound, the GI50 (DMS-114) was 26.7 µM (inactive), the GI50 (DMS-273) was 25.9 µM (inactive) and the GI50 (EKVX) was 39.7 µM (inactive). The GI50 (HCC 2998) was 19.5 µM (inactive), the GI50 (HCT-116) was 21.3 µM (inactive) and the GI50 (HCT-15) was 19.1 µM. For the same compound, the GI50 (HL-60) was 29.7 µM (inactive), the GI50 (HOP-18) was 16 µM (inactive) and the GI50 (HOP-92) was 3.41 µM (inactive). The GI50 (HT-29) was 18.6 µM (inactive), the GI50 (IGROV-1) was 24.9 µM (inactive) and the GI50 (K562) was 29 µM (inactive). For the same compound, the GI50 (KM-20L2) was 19.3 µM (inactive), the GI50 (KM12) was 35.6 µM (inactive) and the GI50 (LOX IMVI) was 17.9 µM (inactive). For the same compound, the GI50 (LXFL 529) was 20.4 µM (inactive), the GI50 (M14) was 20.8 µM (inactive) and the GI50 (MOLT-4) was 21.6 µM (inactive). The GI50 (Malme-3M) was 22.4 µM (inactive), the GI50 (NCI-H226) was 21.1 µM (inactive) and the GI50 (NCI-H23) was 16 µM (inactive). For the same compound, the GI50 (NCI-H460) was 30.2 µM (inactive), the GI50 (OVCAR-4) was 26.5 µM (inactive) and the GI50 (OVCAR-5) was 18.5 µM (inactive). For the same compound, the GI50 (OVCAR-8) was 21.4 µM (inactive), the GI50 (RPMI-8226) was 35.6 µM (inactive) and the GI50 (RXF 393) was 19.6 µM (inactive). The GI50 (SF-268) was 34.9 µM (inactive), the GI50 (SF-295) was 22.2 µM (inactive) and the GI50 (SF-539) was 19.3 µM (inactive). The GI50 (SK-MEL-28) was 25.1 µM (inactive), the GI50 (SK-MEL-2) was 19.8 µM (inactive) and the GI50 (SK-MEL-5) was 32.5 µM (inactive). The GI50 (SN12C) was 24.4 µM (inactive), the GI50 (SNB-19) was 37.3 µM (inactive) and the GI50 (SNB-75) was 26.2 µM (inactive). The GI50 (SNB-78) was 18 µM (inactive), the GI50 (SR) was 24.5 µM (inactive) and the GI50 (SW-620) was 23.1 µM (inactive). For the same compound, the GI50 (TK-10) was 27.3 µM (inactive), the GI50 (U-251) was 16.2 µM (inactive) and the GI50 (UACC-257) was 25.6 µM (inactive). The GI50 (UO-31) was 32.2 µM (inactive) and the GI50 (XF498) was 19 µM (inactive).
